Results taken from US7947679B2 (priority 2002, dated 2011).

Assays:
[1] = system: Botrytis cinerea; details: in vivo
[2] = system: Plasmopara viticola; details: in vivo
[3] = system: Phytophthora infestans; assay type: in vivo; details: 200 ppm, tomato leaf disks, preventive, assessed four days after inoculation

CC(C)Nc1nc2ncccc2c(Cl)c1-c1c(F)cc(F)cc1F
melting point: 202 °C

CC(C)Nc1c(-c2c(F)cc(F)cc2F)c(Cl)nc2ncccc12 [3 (1), [2-chloro-3-(2,4,6-trifluorophenyl)-[1,8]naphthyridin-4-yl]-isopropylamine]
melting point: 193 °C
control of disease [1]: greater than 60%

CC(C)Nc1c(-c2c(F)cc(F)cc2F)c(Cl)nc2ncc(Br)cc12 [3 (111), [6-bromo-2-chloro-3-(2,4,6-trifluorophenyl)-[1,8]naphthyridin-4-yl]-isopropylamine]
control of disease [2]: greater than 60%

Fc1cc(F)c(-c2c(Cl)nc3ncccc3c2N2CCOCC2)c(F)c1 [20 (1), 2-chloro-4-morpholin-4-yl-3-(2,4,6-trifluorophenyl)-[1,8]naphthyridine]
control of disease [3]: greater than 60%
